Results reported in patent publication US11884693B2, “1,3-acetonedicarboxylate-derived amphipathic compounds and uses thereof” (INDUSTRY-UNIVERSITY COOPERATION FOUNDATION HANYANG …, priority 2022, dated 2024).

Key:
[1] = Micelle size by dynamic light scattering (DLS); type: physicochemical; conditions: micelles at 1.0% by weight
Description: A method of measuring the radius of the micelles is not particularly limited, but methods widely known in the related art may be used. For example, the radius of the micelles may be measured using a dynamic light scattering (DLS) experiment.
(§1) To check the characteristics of ACAs synthesized according to the synthesis methods of Examples 1 to 4, critical micelle concentrations (CMCs) of the ACAs and hydrodynamic diameters (DO of the formed micelles were measured.
(§2) Specifically, the critical micelle concentration (CMC) was measured by fluorescence staining using diphenylhexatriene (DPH), and the hydrodynamic diameters (Dh) of the micelles formed by each of the preparations (1.0% by weight) were measured by means of a dynamic light scattering (DLS) experiment. The measured results are shown in Table 1 in comparison to DDM and octyl glucoside neopentyl glycol (OGNG), two existing amphipathic molecule (detergent).
In addition, the size distribution of the micelles formed by ACAs was examined by DLS. As a result, it was confirmed that the size of the micelles increased with an increasing length of the alkyl chain. This is because a compound having a cylindrical structure easy for self-assemblage is formed as more carbon is added to the hydrophobic end (FIG. 3).

[2] = Water solubility of the detergents; type: physicochemical
[3] = Critical micelle concentration by fluorescence staining using diphenylhexatriene (DPH); type: physicochemical; conditions: aqueous solution
Description: A method of measuring the CMC is not particularly limited, but a method widely known in the art may be used, and for example, the CMC may be measured by a fluorescent staining method using diphenylhexatriene (DPH).
as §1, §2

[4] = target: T1, melibiose permease of Salmonella typhimurium (MelBSt) (Salmonella typhimurium, UniProt P30878); experiment: MelBSt extraction and thermal solubilization, SDS-PAGE and immunoblotting; type: biochemical; conditions: 1.5% (w/v) detergent, 90 min incubation at 55° C.
T1 construct: made in house; host or cells: E. coli DW2 (ΔmelB, ΔlacZY), plasmid pK95ΔΔHB/WT MelBSt/CH10
T1 sequence (P30878 whole entry): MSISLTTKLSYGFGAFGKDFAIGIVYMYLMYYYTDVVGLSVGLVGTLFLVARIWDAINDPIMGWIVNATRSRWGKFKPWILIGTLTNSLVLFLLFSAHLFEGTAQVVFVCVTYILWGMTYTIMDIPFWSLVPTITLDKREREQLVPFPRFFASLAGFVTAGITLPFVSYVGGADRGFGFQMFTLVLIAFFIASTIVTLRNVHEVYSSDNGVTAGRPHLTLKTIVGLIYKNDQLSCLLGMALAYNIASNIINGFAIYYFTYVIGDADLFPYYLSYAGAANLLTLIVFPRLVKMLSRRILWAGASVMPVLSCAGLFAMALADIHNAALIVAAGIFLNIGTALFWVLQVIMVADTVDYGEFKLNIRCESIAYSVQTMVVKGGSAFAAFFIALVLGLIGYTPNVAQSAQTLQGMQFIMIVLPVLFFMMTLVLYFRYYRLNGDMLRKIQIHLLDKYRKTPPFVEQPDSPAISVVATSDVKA
Description: Melibiose and other galactoside transporter MelB was produced by E. coli DW2 strain (ΔmelB and ΔlacZY) harboring pK95ΔΔHB/WT MelBSt/CH10 plasmid. The plasmid contains the gene encoding the wild-type melibiose permease of Salmonella typhimurium (MelBSt) with a 10-His tag at the C-terminus. Cell growth and membrane preparation were carried out as described in A. S. Ethayathulla, et al., Nat. Commun. 2014, 5, 3009. Protein assay was carried out with a Micro BCA kit (Thermo Scientific). The membrane samples containing MelBSt (10 mg/mL) in a solubilization buffer (20 mM sodium phosphate, pH 7.5, 200 mM NaCl, 10% glycerol and 20 mM melibiose) were mixed with each individual detergent (ACA-SCs, ACA-ACs and DDM) at 1.5% (w/v). Protein extractions were carried out at 0° C. for 90 min. The protein samples were further incubated at three different temperatures (45, 55, and 65° C.) for 90 min. After extraction and incubation, insoluble fractions were removed by ultracentrifugation at 355,590 g in a Beckman Optima™ MAX Ultracentrifuge using a TLA-100 rotor for 45 min at 4° C. […] membrane proteins without ultracentrifugation and detergent extracts after the ultracentrifugation with the same volume were loaded for analysis by SDS-15% PAGE, and immunoblotting with a HisProbe-HRP antibody (Thermo Scientific) was conducted for visualizing the MelBSt.

[5] = target: T2, mouse u-opioid receptor (MOR) (Mus musculus, UniProt P42866); experiment: MOR long-term stability, [3H]-diprenorphine ligand binding; type: biochemical; conditions: 0.1 wt % detergent, 4° C., after 8 hours of incubation
T2 construct: made in house
T2 sequence (P42866 whole entry): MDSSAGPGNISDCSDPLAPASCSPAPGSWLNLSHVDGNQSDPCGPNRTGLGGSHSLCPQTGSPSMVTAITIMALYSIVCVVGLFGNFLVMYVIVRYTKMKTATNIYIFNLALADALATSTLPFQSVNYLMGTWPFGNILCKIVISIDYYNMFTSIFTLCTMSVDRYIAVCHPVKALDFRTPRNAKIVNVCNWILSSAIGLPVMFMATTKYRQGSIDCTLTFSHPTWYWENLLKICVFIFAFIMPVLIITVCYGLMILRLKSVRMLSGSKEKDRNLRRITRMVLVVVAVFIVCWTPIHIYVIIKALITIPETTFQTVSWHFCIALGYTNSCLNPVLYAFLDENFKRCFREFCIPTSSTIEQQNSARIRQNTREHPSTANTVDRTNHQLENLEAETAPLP
Description: To perform a long-term stability analysis, MOR in 0.1% LMNG was purified. […] MOR in each detergent was incubated for five days at 4° C. and its ligand binding capacity was measured at regular intervals during the incubation. The ligand binding ability of the receptor was measured by adding ˜1 nM of radioactive [^3H]-diprenorphine (DPN). The [^3H]-DPN-containing mixture was immobilized to an anti-flag resin and the resin was collected using GF/B filter paper and scintillation fluid was added into the filter paper. Receptor-bound […] was measured with a scintillation counter (Beckman).

| SMILES | Rh (nm) [1] [nm] | Solubility (% by weight) [2] [% by weight] | CMC [3] [mM] | CMC (% by weight) [3] [% by weight] | MelBSt solubilization ability [4] | residual activity of MOR [5] [%] |
| --- | --- | --- | --- | --- | --- | --- |
| CCCCCCCCCCCC(COC1OC(CO)C(O)C(O)C1O)C(OC1OC(CO)C(O)C(O)C1O)C(CCCCCCCCCCC)COC1OC(CO)C(O)C(O)C1O (mixture of isomers) [ACA-SC11] | 2.9 ± 0.3 | ~10 | ~0.010 | ~0.0009 | approximately 60% |  |
| CCCCCCCCCCCCO[C@@H]1O[C@H](CO)[C@@H](O[C@H]2O[C@H](CO)[C@@H](O)[C@H](O)[C@H]2O)[C@H](O)[C@H]1O [DDM, n-dodecyl-β-D-maltopyranoside, reference compound] | 3.4 ± 0.3 | >10 | 0.17 | 0.0087 |  | 10 |
| CCCCCCCCCCC(CCCCCCCCCC)(COC1OC(CO)C(O)C(O)C1O)C(CCOC1OC(CO)C(O)C(O)C1O)OC1OC(CO)C(O)C(O)C1O (mixture of isomers) [ACA-AC10] | 2.7 ± 0.2 | >10 | ~0.019 | ~0.0017 |  |  |
| CCCCCCCCCCCC(CCCCCCCCCCC)(COC1OC(CO)C(O)C(O)C1O)C(CCOC1OC(CO)C(O)C(O)C1O)OC1OC(CO)C(O)C(O)C1O (mixture of isomers) [ACA-AC11] | 3.3 ± 0.2 | ~10 | ~0.014 | ~0.0013 | approximately 70% |  |

Now from value to compound, other results behind:

| Rh (nm) [1] [nm] | Solubility (% by weight) [2] [% by weight] | CMC [3] [mM] | CMC (% by weight) [3] [% by weight] | SMILES | MelBSt solubilization ability [4] | residual activity of MOR [5] [%] |
| --- | --- | --- | --- | --- | --- | --- |
| 8.9 ± 0.7 | ~9 | ~0.012 | ~0.0011 | CCCCCCCCCCCCC(CCCCCCCCCCCC)(COC1OC(CO)C(O)C(O)C1O)C(CCOC1OC(CO)C(O)C(O)C1O)OC1OC(CO)C(O)C(O)C1O (mixture of isomers) [ACA-AC12] |  |  |
| 13.9 ± 1.1 | ~5 | ~0.005 | ~0.0005 | CCCCCCCCCCCCCC(COC1OC(CO)C(O)C(O)C1O)C(OC1OC(CO)C(O)C(O)C1O)C(CCCCCCCCCCCCC)COC1OC(CO)C(O)C(O)C1O (mixture of isomers) [ACA-SC13] |  |  |
| 8.3 ± 0.1 | ~10 | ~0.007 | ~0.0007 | CCCCCCCCCCCCC(COC1OC(CO)C(O)C(O)C1O)C(OC1OC(CO)C(O)C(O)C1O)C(CCCCCCCCCCCC)COC1OC(CO)C(O)C(O)C1O (mixture of isomers) [ACA-SC12] |  |  |
| 4.4 ± 0.3 | >10 | ~1.0 | ~0.058 | CCCCCCC(CCCCCC)(CO[C@@H]1O[C@H](CO)[C@@H](O)[C@H](O)[C@H]1O)CO[C@@H]1O[C@H](CO)[C@@H](O)[C@H](O)[C@H]1O [OGNG, octyl glucoside neopentyl glycol, reference compound] |  |  |
